“Also recorded” adds a separate entry of the source.
Tests used:
CD4^+ T cells = experiment: I-A^b:peptide tetramer binding by flow cytometry after peptide immunization; assay type: cell-based, mouse
Procedure: (§1) FIGS. 4A-4B. Negative selection of AQP4 p133-149-reactive T cells is bypassed partially in mice deficient in thymic AQP4 expression. (FIG. 4A) AQP4^−/− WT, Foxn1cre-AQP4^fl/fl, Aire^−/−, or Foxn1cre-Fezf2^fl/fl mice were immunized s.c. with peptides indicated. Peptide-specific proliferation of draining lymph node cells was measured by 3H-thymidine incorporation (mean±SEM, representative of five experiments). Comparisons within the five experiments for p133-149 at […]: WT vs. AQP4^−/− (p=0.008), WT vs. Foxn1cre-AQP4^fl/fl (p=0.008). (FIG. 4B) Ten days after peptide immunization, CD4^+ T cells from draining lymph nodes were analyzed for I-A^b: peptide tetramer binding by flow cytometry. Each data point represents the frequency (mean±SEM) of CD4^+ T cells bound to cognate antigen-tetramer in a single mouse. […] For p133-149: WT vs. Aire^−/− (p=0.9), WT vs. Foxn1cre-Fezf2^fl/fl (p=0.3). For p202-218: WT vs. Foxn1cre-AQP4^fl/fl (p=0.3), WT vs. Aire^−/− (p=0.06).
Flow cytometry. For analysis of tetramer binding, AQP4 p133-149, p202-218, IRBP p277-289 and hCLIP p87-101 IA^b tetramers conjugated to PE or APC were provided by the National Institute of Allergy and Infectious Diseases Tetramer Core Facility at Emory University. Lymphocytes were coincubated with 1 mg/ml tetramer conjugated to PE or APC for 2 hours at room temperature, washed and enriched using anti-PE magnetic microbeads (Miltenyi) over a magnetic column. Binding to hCLIP tetramer was used as a negative control. Dead cells were excluded using Live/Dead fixable Aqua Dead Cell Stain Kit (Invitrogen), lineage negative cells were excluded using antibodies to CD11b (M1/70), B220 (RA3-6B2) and CD8 (53-6.7) and positive cells were selected using antibodies to CD3 (145-2C11) and CD4 (RM4.5). 123count eBeads (Invitrogen) were used with unenriched and enriched samples for quantification of the frequency of tet^+CD4^+ T cells (total number of tet^+CD4+ T cells divided by total CD4^+ T cells per mouse). For figures showing tetramer staining, flow cytometry of the unenriched cells are shown. For analysis of GFP^+ T cells, mice were perfused with PBS, and the CNS was dissected, minced, digested with collagenase and DNase I (Roche), and isolated over a Ficoll gradient as described previously (39). Live CD4^+ cells were analyzed with a viability stain (Near-IR), and antibodies to CD11b, B220, CD8 and CD4. Apoptosis was analyzed separately using the same antibody staining, followed by Annexin V and 7-AAD staining in Annexin V binding buffer (BioLegend) per manufacturer's instructions. Cells were quantified using 123count eBeads.

[1] = tested on: draining lymph node cells; experiment: Proliferation assay, ^3H-thymidine incorporation after s.c. peptide immunization; assay type: cell-based, mouse
Procedure: FIGS. 2A-2F. Pathogenic AQP4 determinants bind I-A^b with high affinity and elicit proliferation of AQP4: I-A^b-specific TCR-bearing T cells in AQP4-deficient mice. (FIG. 2A) WT or AQP4^−/− mice were immunized s.c. with peptides indicated. Peptide-specific proliferation of draining lymph node cells was measured by 3H-thymidine incorporation (mean±SEM, representative of five experiments). (FIG. 2B) Lymph node cells from AQP4 immunized WT or AQP4^−/− mice were cultured for 3 days with cognate antigen under Th17 polarizing conditions. AQP4 p133-149- and p202-218-specific Th17 cells from AQP4/donors induce paralysis in WT recipient mice. (FIG. 2C) IEDB, an in silico method for predicting determinants within proteins that bind MHC alleles, was used to identify AQP4 amino acid sequences anticipated to bind I-A^b for recognition by AQP4-specific/I-A^b-restricted CD4^+ T cells. 1/IC50 is plotted against the first amino acid for each overlapping AQP4 15 mer. Peaks correspond to increased predicted binding affinity. (FIG. 2D) Purified I-A^b molecules were tested biochemically for peptide binding affinity using a competitive binding assay between a radiolabeled high-affinity competitor peptide and unlabeled peptides (22). Lower IC50 values indicate higher binding affinity. Boxed amino acids designate the core binding regions. (FIGS. 2E-2F) Lymph node T cells isolated from WT or AQP4−/− mice immunized with AQP4 p133-149 or p202-218 were stained with I-A^b:p133-149 and […] tetramers, bead-enriched and analyzed by flow cytometry. […] Each data point represents one mouse. ****p<0.0001 (Mann Whitney U test).
as §1
Proliferation assays. Mice were immunized subcutaneously (s.c.) with 100 μg of AQP4, MOG or IRBP peptide in CFA containing 400 μg M. tuberculosis H37Ra (Difco Laboratories). Lymph nodes were harvested on day 10-12 and cultured at 2×10^5/well with various concentrations of peptide in triplicate wells for 72 hours. […] of ^3H-thymidine was added 18 hours prior to cell harvest, and data are presented as counts per minute (CPM). Stimulation Index (SI) was calculated by dividing CPM in wells with Ag by CPM in wells with no antigen controls of each assay test group.

[2] = AQP4^−/− mice compared with the other strains, cognate I-A^b:peptide tetramer
[3] = Foxn1cre-AQP4^fl/fl (thymic AQP4-deficient) mice compared with WT mice
[4] = AQP4^−/− mice immunized with the peptide
[5] = Aire^−/− mice immunized with the peptide
[6] = Foxn1cre-AQP4^fl/fl mice immunized with the peptide
[7] = WT mice immunized with the peptide

Sequence	frequency of CD4^+ tet^+ T cells (CD4^+ T cells; [2])	frequency of CD4^+ tet^+ T cells (CD4^+ T cells; [3])	peptide-specific proliferation of draining lymph node cells [1, 4]	peptide-specific proliferation of draining lymph node cells [1, 5]	peptide-specific proliferation of draining lymph node cells [1, 6]	peptide-specific proliferation of draining lymph node cells [1, 7]	frequency of CD4^+ tet^+ T cells (CD4^+ T cells; Foxn1cre-AQP4^fl/fl mice compared with AQP4^−/− mice)	peptide-specific proliferation of draining lymph node cells ([1]; AQP4^−/− mice immunized with the peptide, listed as p133-149)	peptide-specific proliferation of draining lymph node cells ([1]; Foxn1cre-Fezf2^fl/fl mice immunized with the peptide)
LFAINYTGASMNPARSF [AQP4 p202-218]	elevated in AQP4^−/− mice in comparison to other strains	did not permit significant restoration	robust proliferative responses; also recorded: strong proliferation	no significant responses	only marginal responses	no significant responses	–	–	–
LYLVTPPSVVGGLGVT [AQP4 p133-149]	significantly elevated in AQP4^−/− mice	significantly elevated in comparison to AQP4 p133-149-specific T cells in WT mice	robust proliferative T cell responses	little or no proliferation	induced proliferation in Foxn1cre-AQP4^fl/fl mice, but not to the same level as in AQP4^−/− mice	little or no proliferation	significantly lower than in AQP4^−/− mice	robust proliferative responses	little or no proliferation

From patent US20250052751A1, “COMPOSITIONS AND METHODS FOR DIAGNOSING AUTOIMMUNE AQUAPORINOPATHY” (The Regents of the University of California, priority 2023, published 2025)
